Values joined by “and” are separate entries in the source; they are usually repeats but may differ in a detail not shown here. Identical values can stand only once. Inconclusive results and toxic doses are left out.
Test system: CD2F1 mice, L1210 leukemia ip, survival T/C
Assay: NCI In Vivo Anticancer Drug Screen. Data for tumor model L1210 Leukemia (intraperitoneal) in CD2F1 (CDF1) mice
Details: higher = longer survival
Outline: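 Tumor-bearing mice (transplanted tumor) were split into treated and vehicle control groups, and the measured endpoint of each treated group was divided by that of its vehicle controls.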

[1] = endpoint: mean survival time, dose: 6.25 mg/kg/injection, schedule: Q01DX009 (ip), vehicle: saline with Tween-80

O=NN(CCF)C(=O)NC1C(O)CCCC1O (stereo not drawn)
T/C (endpoint: median survival time, dose: 1.25 mg/kg/injection, schedule: Q01DX001 (ip), vehicle: saline): 120 % of control
T/C (endpoint: median survival time, dose: 2.5 mg/kg/injection, schedule: Q01DX001 (ip), vehicle: saline): 116 % of control
T/C (endpoint: median survival time, dose: 5.0 mg/kg/injection, schedule: Q01DX001 (ip), vehicle: saline): 160 % of control
T/C (endpoint: median survival time, dose: 5.0 mg/kg/injection, schedule: Q04DX002 (ip), vehicle: saline): 178 % of control
T/C (endpoint: median survival time, dose: 10.0 mg/kg/injection, schedule: Q01DX001 (ip), vehicle: saline): 168 % of control
T/C (endpoint: median survival time, dose: 10.0 mg/kg/injection, schedule: Q04DX002 (ip), vehicle: saline): 231 % of control and 232 % of control
T/C (endpoint: median survival time, dose: 20.0 mg/kg/injection, schedule: Q01DX001 (ip), vehicle: saline): 337 % of control
T/C (endpoint: median survival time, dose: 20.0 mg/kg/injection, schedule: Q04DX002 (ip), vehicle: saline): 361 % of control and 365 % of control
T/C (endpoint: median survival time, dose: 40.0 mg/kg/injection, schedule: Q01DX001 (ip), vehicle: saline): 337 % of control
T/C (endpoint: median survival time, dose: 40.0 mg/kg/injection, schedule: Q04DX002 (ip), vehicle: saline): 182 % of control and 361 % of control

Cc1ccc(NC(=O)OCCSC(=O)COc2ccc(Cl)cc2Cl)cc1
T/C (endpoint: mean survival time, dose: 100.0 mg/kg/injection, schedule: Q04DX003 (ip), vehicle: saline with Tween-80): 98 % of control
T/C (endpoint: mean survival time, dose: 200.0 mg/kg/injection, schedule: Q04DX003 (ip), vehicle: saline with Tween-80): 98 % of control
T/C (endpoint: mean survival time, dose: 400.0 mg/kg/injection, schedule: Q04DX003 (ip), vehicle: saline with Tween-80): 93 % of control

NC(=O)c1ncn(C2CC3[O][Sn]([c]4ccccc4)([c]4ccccc4)[O]CC3O2)n1 (stereo not drawn)
T/C (endpoint: mean survival time, dose: 12.5 mg/kg/injection, schedule: Q01DX005 (ip), vehicle: distilled water + Tween-80): 101 % of control
T/C (endpoint: mean survival time, dose: 25.0 mg/kg/injection, schedule: Q01DX005 (ip), vehicle: distilled water + Tween-80): 97 % of control
T/C (endpoint: mean survival time, dose: 100.0 mg/kg/injection, schedule: Q01DX005 (ip), vehicle: distilled water + Tween-80): 88 % of control
T/C (endpoint: mean survival time, dose: 200.0 mg/kg/injection, schedule: Q01DX005 (ip), vehicle: distilled water + Tween-80): 95 % of control

CCN(CC)CCOC(=O)c1ccccc1Nc1cccc(C)c1
T/C (endpoint: mean survival time, dose: 25.0 mg/kg/injection, schedule: Q01DX009 (ip), vehicle: saline): 89 % of control
T/C (endpoint: mean survival time, dose: 50.0 mg/kg/injection, schedule: Q01DX009 (ip), vehicle: saline): 101 % of control
T/C (endpoint: mean survival time, dose: 100.0 mg/kg/injection, schedule: Q01DX009 (ip), vehicle: saline): 97 % of control

c1ccc(N=N/C(=N/Nc2ccccc2)c2ccccc2)cc1
T/C [1]: 104 % of control
T/C (endpoint: mean survival time, dose: 12.5 mg/kg/injection, schedule: Q01DX009 (ip), vehicle: saline with Tween-80): 101 % of control
T/C (endpoint: mean survival time, dose: 25.0 mg/kg/injection, schedule: Q01DX009 (ip), vehicle: saline with Tween-80): 98 % of control

NC(=S)S
T/C (endpoint: mean survival time, dose: 100.0 mg/kg/injection, schedule: Q04DX002 (ip), vehicle: saline with Tween-80): 102 % of control
T/C (endpoint: mean survival time, dose: 200.0 mg/kg/injection, schedule: Q04DX002 (ip), vehicle: saline with Tween-80): 113 % of control
T/C (endpoint: mean survival time, dose: 400.0 mg/kg/injection, schedule: Q04DX002 (ip), vehicle: saline with Tween-80): 102 % of control

S=c1cc[nH]c2ccccc12
T/C (endpoint: mean survival time, dose: 12.5 mg/kg/injection, schedule: Q01DX009 (ip), vehicle: other): 104 % of control
T/C (endpoint: mean survival time, dose: 25.0 mg/kg/injection, schedule: Q01DX009 (ip), vehicle: other): 102 % of control
T/C (endpoint: mean survival time, dose: 50.0 mg/kg/injection, schedule: Q01DX009 (ip), vehicle: other): 104 % of control

C[NH-].C[NH-].[Br][Pt+2][Br]
T/C (endpoint: mean survival time, dose: 1.25 mg/kg/injection, schedule: Q04DX003 (ip), vehicle: water): 106 % of control
T/C (endpoint: mean survival time, dose: 2.5 mg/kg/injection, schedule: Q04DX003 (ip), vehicle: water): 108 % of control
T/C (endpoint: mean survival time, dose: 5.0 mg/kg/injection, schedule: Q04DX003 (ip), vehicle: water): 110 % of control
T/C (endpoint: mean survival time, dose: 10.0 mg/kg/injection, schedule: Q04DX003 (ip), vehicle: water): 97 % of control

COC1OC(CO)C2OC(=O)NC2C1O (stereo not drawn)
T/C (endpoint: mean survival time, dose: 100.0 mg/kg/injection, schedule: Q04DX003 (ip), vehicle: saline): 98 % of control
T/C (endpoint: mean survival time, dose: 200.0 mg/kg/injection, schedule: Q04DX003 (ip), vehicle: saline): 94 % of control
T/C (endpoint: mean survival time, dose: 400.0 mg/kg/injection, schedule: Q04DX003 (ip), vehicle: saline): 100 % of control

Cc1ccc2c(c1)CC(C)(C)O2
T/C (endpoint: mean survival time, dose: 50.0 mg/kg/injection, schedule: Q01DX001 (ip), vehicle: Klucel (hydroxypropylcellulose) (HPC)): 102 % of control
T/C (endpoint: mean survival time, dose: 100.0 mg/kg/injection, schedule: Q01DX001 (ip), vehicle: Klucel (hydroxypropylcellulose) (HPC)): 93 % of control
T/C (endpoint: mean survival time, dose: 200.0 mg/kg/injection, schedule: Q01DX001 (ip), vehicle: Klucel (hydroxypropylcellulose) (HPC)): 102 % of control

Cc1cc(Cl)ccc1NC(=O)SCc1ccc(Cl)cc1
T/C (endpoint: mean survival time, dose: 50.0 mg/kg/injection, schedule: Q01DX009 (ip), vehicle: saline with Tween-80): 95 % of control
T/C (endpoint: mean survival time, dose: 100.0 mg/kg/injection, schedule: Q01DX009 (ip), vehicle: saline with Tween-80): 100 % of control
T/C (endpoint: mean survival time, dose: 200.0 mg/kg/injection, schedule: Q01DX009 (ip), vehicle: saline with Tween-80): 103 % of control

CC(O)C1NC(=S)N(c2ccccc2)C1=O (stereo not drawn)
T/C (endpoint: mean survival time, dose: 75.0 mg/kg/injection, schedule: Q01DX001 (ip), vehicle: saline): 100 % of control
T/C (endpoint: mean survival time, dose: 150.0 mg/kg/injection, schedule: Q01DX001 (ip), vehicle: saline): 103 % of control
T/C (endpoint: mean survival time, dose: 300.0 mg/kg/injection, schedule: Q01DX001 (ip), vehicle: saline): 103 % of control

O=C(O)c1ccccc1N(CCO)CCCl
T/C (endpoint: mean survival time, dose: 3.13 mg/kg/injection, schedule: Q01DX009 (ip), vehicle: saline with Tween-80): 121 % of control and 110 % of control
T/C [1]: 119 % of control
T/C (endpoint: mean survival time, dose: 10.0 mg/kg/injection, schedule: Q01DX009 (ip), vehicle: Klucel (hydroxypropylcellulose) (HPC)): 186 % of control

From PubChem BioAssay AID256 (DTP/NCI, 2004)
